Data taken from the supplement of paper PMC8612539.
In brackets after ≈: the same amount, converted by molar mass.

Test system: Histophilus somni
Assay: minimum inhibitory concentration (MIC)
Description: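 Broth microdilution MIC (Sensititre BOPO7F bovine plate, CLSI methods) of 19 antimicrobials against field isolates of P. multocida, M. haemolytica, H. somni (deep nasopharyngeal swabs) and E. coli, Enterococcus spp. (rectal swabs) from weaned dairy heifers. Incubation 16-24 h at 35 C. MIC is the lowest concentration preventing visible growth. Values with <= or > lie at the tested range limits. Trimethoprim-sulfamethoxazole is given as the trimethoprim component of a 1:19 mixture.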

CC[C@H]1OC(=O)C[C@@H](O)[C@H](C)[C@@H](O[C@@H]2O[C@H](C)[C@@H](O[C@H]3C[C@@](C)(O)[C@@H](O)[C@H](C)O3)[C@H](N(C)C)[C@H]2O)[C@@H](CC=O)C[C@@H](C)C(=O)/C=C/C(C)=C/[C@@H]1CO[C@@H]1O[C@H](C)[C@@H](O)[C@@H](OC)[C@H]1OC [Tylosin]
Conditions	minimum inhibitory concentration [µg/mL]
isolate (source animal id): 3	8 (≈ 8.73 µM)
isolate (source animal id): 4	8 (≈ 8.73 µM)
isolate (source animal id): 7	8 (≈ 8.73 µM)
isolate (source animal id): 14	8 (≈ 8.73 µM)
isolate (source animal id): 15	8 (≈ 8.73 µM)
isolate (source animal id): 17	8 (≈ 8.73 µM)
isolate (source animal id): 18	8 (≈ 8.73 µM)
isolate (source animal id): 20	8 (≈ 8.73 µM)
isolate (source animal id): 23	2 (≈ 2.18 µM)
isolate (source animal id): 45	16 (≈ 17.5 µM)
isolate (source animal id): 53	16 (≈ 17.5 µM)
isolate (source animal id): 83	4 (≈ 4.37 µM)
isolate (source animal id): 88	8 (≈ 8.73 µM)
isolate (source animal id): 92	8 (≈ 8.73 µM)
isolate (source animal id): 93	8 (≈ 8.73 µM)
isolate (source animal id): 99	4 (≈ 4.37 µM)
isolate (source animal id): 100	8 (≈ 8.73 µM)
isolate (source animal id): 105	4 (≈ 4.37 µM)
isolate (source animal id): 107	8 (≈ 8.73 µM)
isolate (source animal id): 108	4 (≈ 4.37 µM)
isolate (source animal id): 109	8 (≈ 8.73 µM)
isolate (source animal id): 110	8 (≈ 8.73 µM)
isolate (source animal id): 117	4 (≈ 4.37 µM)
isolate (source animal id): 121	8 (≈ 8.73 µM)
isolate (source animal id): 123	8 (≈ 8.73 µM)
isolate (source animal id): 124	8 (≈ 8.73 µM)
isolate (source animal id): 127	8 (≈ 8.73 µM)
isolate (source animal id): 128	8 (≈ 8.73 µM)
isolate (source animal id): 130	2 (≈ 2.18 µM)
isolate (source animal id): 132	8 (≈ 8.73 µM)
isolate (source animal id): 135	8 (≈ 8.73 µM)
isolate (source animal id): 140	8 (≈ 8.73 µM)
isolate (source animal id): 141	4 (≈ 4.37 µM)
isolate (source animal id): 142	> 32
isolate (source animal id): 144	8 (≈ 8.73 µM)
isolate (source animal id): 146	4 (≈ 4.37 µM)
isolate (source animal id): 147	> 32
isolate (source animal id): 151	8 (≈ 8.73 µM)
isolate (source animal id): 153	16 (≈ 17.5 µM)
isolate (source animal id): 154	> 32
isolate (source animal id): 156	> 32
isolate (source animal id): 157	16 (≈ 17.5 µM)
isolate (source animal id): 176	32 (≈ 34.9 µM)
isolate (source animal id): 183	16 (≈ 17.5 µM)
isolate (source animal id): 186	32 (≈ 34.9 µM)
isolate (source animal id): 196	8 (≈ 8.73 µM)
isolate (source animal id): 198	8 (≈ 8.73 µM)
isolate (source animal id): 200	8 (≈ 8.73 µM)
isolate (source animal id): 206	8 (≈ 8.73 µM)
isolate (source animal id): 208	16 (≈ 17.5 µM)
isolate (source animal id): 210	8 (≈ 8.73 µM)
isolate (source animal id): 212	4 (≈ 4.37 µM)
isolate (source animal id): 215	8 (≈ 8.73 µM)
isolate (source animal id): 216	16 (≈ 17.5 µM)
isolate (source animal id): 218	8 (≈ 8.73 µM)
isolate (source animal id): 219	8 (≈ 8.73 µM)
isolate (source animal id): 224	8 (≈ 8.73 µM)
isolate (source animal id): 228	16 (≈ 17.5 µM)
isolate (source animal id): 230	32 (≈ 34.9 µM)
isolate (source animal id): 233	16 (≈ 17.5 µM)
isolate (source animal id): 238	2 (≈ 2.18 µM)
isolate (source animal id): 239	16 (≈ 17.5 µM)
isolate (source animal id): 241	16 (≈ 17.5 µM)
isolate (source animal id): 242	16 (≈ 17.5 µM)
isolate (source animal id): 243	16 (≈ 17.5 µM)
isolate (source animal id): 245	16 (≈ 17.5 µM)
isolate (source animal id): 246	8 (≈ 8.73 µM)
isolate (source animal id): 247	16 (≈ 17.5 µM)
isolate (source animal id): 248	4 (≈ 4.37 µM)
isolate (source animal id): 250	16 (≈ 17.5 µM)
isolate (source animal id): 251	32 (≈ 34.9 µM)
isolate (source animal id): 252	16 (≈ 17.5 µM)
isolate (source animal id): 254	16 (≈ 17.5 µM)
isolate (source animal id): 258	8 (≈ 8.73 µM)
isolate (source animal id): 259	8 (≈ 8.73 µM)
isolate (source animal id): 262	8 (≈ 8.73 µM)
isolate (source animal id): 264	4 (≈ 4.37 µM)
isolate (source animal id): 265	4 (≈ 4.37 µM)
isolate (source animal id): 266	8 (≈ 8.73 µM)
isolate (source animal id): 267	4 (≈ 4.37 µM)
isolate (source animal id): 269	4 (≈ 4.37 µM)
isolate (source animal id): 271	8 (≈ 8.73 µM)
isolate (source animal id): 272	4 (≈ 4.37 µM)
isolate (source animal id): 274	8 (≈ 8.73 µM)
isolate (source animal id): 276	8 (≈ 8.73 µM)
isolate (source animal id): 278	4 (≈ 4.37 µM)
isolate (source animal id): 280	4 (≈ 4.37 µM)
isolate (source animal id): 281	8 (≈ 8.73 µM)
isolate (source animal id): 283	4 (≈ 4.37 µM)
isolate (source animal id): 288	8 (≈ 8.73 µM)
isolate (source animal id): 291	8 (≈ 8.73 µM)
isolate (source animal id): 292	8 (≈ 8.73 µM)
isolate (source animal id): 296	4 (≈ 4.37 µM)
isolate (source animal id): 306	8 (≈ 8.73 µM)
isolate (source animal id): 336	8 (≈ 8.73 µM)
isolate (source animal id): 337	8 (≈ 8.73 µM)
isolate (source animal id): 341	8 (≈ 8.73 µM)

COc1cc(Cc2cnc(N)nc2N)cc(OC)c1OC.Cc1cc(NS(=O)(=O)c2ccc(N)cc2)no1 [trimethoprim-sulfamethoxazole]
Conditions	minimum inhibitory concentration [µg/mL]
isolate (source animal id): 3	≤ 2
isolate (source animal id): 4	> 2
isolate (source animal id): 7	> 2
isolate (source animal id): 14	> 2
isolate (source animal id): 15	≤ 2
isolate (source animal id): 17	> 2
isolate (source animal id): 18	≤ 2
isolate (source animal id): 20	> 2
isolate (source animal id): 23	≤ 2
isolate (source animal id): 45	> 2
isolate (source animal id): 53	> 2
isolate (source animal id): 83	≤ 2
isolate (source animal id): 88	> 2
isolate (source animal id): 92	≤ 2
isolate (source animal id): 93	≤ 2
isolate (source animal id): 99	≤ 2
isolate (source animal id): 100	≤ 2
isolate (source animal id): 105	≤ 2
isolate (source animal id): 107	≤ 2
isolate (source animal id): 108	≤ 2
isolate (source animal id): 109	≤ 2
isolate (source animal id): 110	≤ 2
isolate (source animal id): 117	> 2
isolate (source animal id): 121	> 2
isolate (source animal id): 123	≤ 2
isolate (source animal id): 124	≤ 2
isolate (source animal id): 127	≤ 2
isolate (source animal id): 128	> 2
isolate (source animal id): 130	≤ 2
isolate (source animal id): 132	> 2
isolate (source animal id): 135	> 2
isolate (source animal id): 140	> 2
isolate (source animal id): 141	≤ 2
isolate (source animal id): 142	≤ 2
isolate (source animal id): 144	≤ 2
isolate (source animal id): 146	≤ 2
isolate (source animal id): 147	≤ 2
isolate (source animal id): 151	> 2
isolate (source animal id): 153	≤ 2
isolate (source animal id): 154	≤ 2
isolate (source animal id): 156	≤ 2
isolate (source animal id): 157	≤ 2
isolate (source animal id): 176	≤ 2
isolate (source animal id): 183	≤ 2
isolate (source animal id): 186	≤ 2
isolate (source animal id): 196	≤ 2
isolate (source animal id): 198	≤ 2
isolate (source animal id): 200	≤ 2
isolate (source animal id): 206	≤ 2
isolate (source animal id): 208	≤ 2
isolate (source animal id): 210	≤ 2
isolate (source animal id): 212	≤ 2
isolate (source animal id): 215	≤ 2
isolate (source animal id): 216	≤ 2
isolate (source animal id): 218	≤ 2
isolate (source animal id): 219	≤ 2
isolate (source animal id): 224	≤ 2
isolate (source animal id): 228	≤ 2
isolate (source animal id): 230	≤ 2
isolate (source animal id): 233	> 2
isolate (source animal id): 238	> 2
isolate (source animal id): 239	> 2
isolate (source animal id): 241	≤ 2
isolate (source animal id): 242	≤ 2
isolate (source animal id): 243	≤ 2
isolate (source animal id): 245	> 2
isolate (source animal id): 246	≤ 2
isolate (source animal id): 247	≤ 2
isolate (source animal id): 248	≤ 2
isolate (source animal id): 250	≤ 2
isolate (source animal id): 251	≤ 2
isolate (source animal id): 252	≤ 2
isolate (source animal id): 254	≤ 2
isolate (source animal id): 258	≤ 2
isolate (source animal id): 259	≤ 2
isolate (source animal id): 262	≤ 2
isolate (source animal id): 264	≤ 2
isolate (source animal id): 265	> 2
isolate (source animal id): 266	≤ 2
isolate (source animal id): 267	≤ 2
isolate (source animal id): 269	≤ 2
isolate (source animal id): 271	≤ 2
isolate (source animal id): 272	> 2
isolate (source animal id): 274	≤ 2
isolate (source animal id): 276	≤ 2
isolate (source animal id): 278	≤ 2
isolate (source animal id): 280	> 2
isolate (source animal id): 281	≤ 2
isolate (source animal id): 283	≤ 2
isolate (source animal id): 288	≤ 2
isolate (source animal id): 291	> 2
isolate (source animal id): 292	≤ 2
isolate (source animal id): 296	≤ 2
isolate (source animal id): 306	≤ 2
isolate (source animal id): 336	≤ 2
isolate (source animal id): 337	≤ 2
isolate (source animal id): 341	≤ 2
